Where a chain is given by its changes, count along the chain named. Read-outs that look alike come from different tables or passages of the source.
Key:
COX-1 [1] = biological target: T1, COX-1 (Macaca mulatta, UniProt F6S984); test: COX-1 whole-blood enzymatic immunoassay; assay type: cell-based; details: read-out: IC50 COX-1 Monkey, mean ± SD (n = 3)
T1 sequence (F6S984 25-599): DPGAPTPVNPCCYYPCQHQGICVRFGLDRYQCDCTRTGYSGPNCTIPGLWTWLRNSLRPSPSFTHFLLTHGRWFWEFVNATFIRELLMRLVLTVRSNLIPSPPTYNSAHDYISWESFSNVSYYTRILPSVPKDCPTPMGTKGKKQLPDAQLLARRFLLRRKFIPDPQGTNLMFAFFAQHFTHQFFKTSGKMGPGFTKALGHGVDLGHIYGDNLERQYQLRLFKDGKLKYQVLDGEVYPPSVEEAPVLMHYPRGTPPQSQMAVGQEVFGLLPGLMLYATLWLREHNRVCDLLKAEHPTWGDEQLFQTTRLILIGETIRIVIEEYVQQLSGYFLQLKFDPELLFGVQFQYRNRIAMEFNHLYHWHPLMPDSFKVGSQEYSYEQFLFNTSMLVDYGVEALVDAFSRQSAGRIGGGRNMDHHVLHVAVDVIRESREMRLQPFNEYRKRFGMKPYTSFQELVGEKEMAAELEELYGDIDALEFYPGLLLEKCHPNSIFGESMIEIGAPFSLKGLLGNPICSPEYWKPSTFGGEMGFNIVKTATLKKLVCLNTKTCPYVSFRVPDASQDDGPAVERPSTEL

COX-2 [2] = biological target: T2, COX-2 (Macaca mulatta, UniProt F7BWZ9); test: COX-2 whole-blood enzymatic immunoassay; assay type: cell-based; details: read-out: IC50 COX-2 Monkey, mean ± SD (n = 3)
T2 sequence (F7BWZ9 18-604): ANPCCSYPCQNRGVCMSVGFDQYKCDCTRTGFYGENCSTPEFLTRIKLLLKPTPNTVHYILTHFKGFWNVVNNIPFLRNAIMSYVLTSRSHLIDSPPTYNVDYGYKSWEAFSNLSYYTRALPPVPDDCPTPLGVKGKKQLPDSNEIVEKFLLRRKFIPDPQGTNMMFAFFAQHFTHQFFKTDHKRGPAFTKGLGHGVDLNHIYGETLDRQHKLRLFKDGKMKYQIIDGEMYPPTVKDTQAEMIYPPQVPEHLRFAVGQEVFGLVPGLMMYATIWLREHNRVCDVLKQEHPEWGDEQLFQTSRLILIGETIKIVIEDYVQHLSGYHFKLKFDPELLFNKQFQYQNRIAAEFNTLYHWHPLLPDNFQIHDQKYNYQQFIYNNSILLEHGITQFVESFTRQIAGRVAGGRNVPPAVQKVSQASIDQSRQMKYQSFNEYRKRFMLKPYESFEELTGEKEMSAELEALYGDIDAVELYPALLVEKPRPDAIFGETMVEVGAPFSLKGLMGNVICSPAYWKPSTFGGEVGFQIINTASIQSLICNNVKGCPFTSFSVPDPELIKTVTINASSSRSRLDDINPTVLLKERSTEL

human COX-1 = details: read-out: IC50 for human COX-1 (reported); human whole blood; cited from earlier work
COX-1 [3] = biological target: T3, COX-1 (Rattus norvegicus, UniProt Q63921); test: COX-1 whole-blood enzymatic immunoassay; assay type: cell-based
T3 sequence (Q63921 27-602): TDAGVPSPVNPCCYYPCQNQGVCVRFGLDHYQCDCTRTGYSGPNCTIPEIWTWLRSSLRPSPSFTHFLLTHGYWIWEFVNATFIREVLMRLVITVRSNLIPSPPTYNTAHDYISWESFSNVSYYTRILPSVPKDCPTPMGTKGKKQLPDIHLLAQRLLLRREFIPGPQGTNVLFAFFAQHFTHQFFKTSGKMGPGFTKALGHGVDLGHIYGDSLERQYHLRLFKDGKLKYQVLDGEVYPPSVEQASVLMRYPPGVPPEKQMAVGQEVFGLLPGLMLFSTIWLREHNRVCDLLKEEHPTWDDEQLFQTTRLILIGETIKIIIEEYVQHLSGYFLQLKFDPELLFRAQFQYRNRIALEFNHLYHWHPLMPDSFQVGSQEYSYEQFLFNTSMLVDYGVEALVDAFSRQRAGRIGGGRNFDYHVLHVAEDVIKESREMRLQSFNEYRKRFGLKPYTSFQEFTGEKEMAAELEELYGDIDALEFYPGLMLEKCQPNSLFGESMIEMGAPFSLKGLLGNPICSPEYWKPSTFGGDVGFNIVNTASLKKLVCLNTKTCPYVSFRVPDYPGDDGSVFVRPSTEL

COX-1 [4] = biological target: COX-1 (Homo sapiens, UniProt P23219); test: COX-1 whole-blood enzymatic immunoassay; assay type: cell-based
COX-2 [5] = biological target: T4, COX-2 (Homo sapiens, UniProt P35354); test: COX-2 whole-blood enzymatic immunoassay; assay type: cell-based
T4 sequence (P35354 18-604): T2 sequence (F7BWZ9 18-604) with Y7H, L49F, V101A, F150L, T163S, K191N, D208A, H211R, N363T, R570G

[6] = read-out: IC50 COX-1 Human, human whole blood, mean ± SD (n = 3)

Sequence of COX-1 (Homo sapiens, UniProt P23219) (P23219 24-599): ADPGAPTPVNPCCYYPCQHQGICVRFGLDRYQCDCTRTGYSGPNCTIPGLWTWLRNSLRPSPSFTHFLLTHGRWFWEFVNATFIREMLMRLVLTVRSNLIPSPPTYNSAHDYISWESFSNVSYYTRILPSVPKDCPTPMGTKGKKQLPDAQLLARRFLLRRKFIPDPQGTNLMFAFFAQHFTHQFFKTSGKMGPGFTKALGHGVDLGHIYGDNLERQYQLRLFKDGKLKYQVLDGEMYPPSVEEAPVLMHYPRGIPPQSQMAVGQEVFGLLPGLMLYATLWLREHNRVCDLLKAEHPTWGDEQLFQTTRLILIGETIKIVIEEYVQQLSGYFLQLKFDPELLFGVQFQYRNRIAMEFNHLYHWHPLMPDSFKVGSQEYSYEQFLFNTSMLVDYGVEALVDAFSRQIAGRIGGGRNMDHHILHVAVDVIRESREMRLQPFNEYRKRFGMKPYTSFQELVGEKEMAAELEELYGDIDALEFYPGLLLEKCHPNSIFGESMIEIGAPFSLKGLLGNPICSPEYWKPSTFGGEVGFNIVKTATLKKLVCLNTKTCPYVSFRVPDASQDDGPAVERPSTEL

Row | Compound | IC50 (COX-1 [1]) [nM] | IC50 (COX-2 [2]) [nM] | IC50 (human COX-1) [nM] | IC50 (COX-1 [3]) [nM] | IC50 (COX-1 [4]) [nM] | IC50 (COX-2 [5]) [nM] | IC50 (COX-1 [4]; [6]) [nM] | IC50 (COX-2 [5]; read-out: IC50 COX-2 Human, human whole blood, mean ± SD (n = 3)) [nM]
1 | C[C@H](C(=O)O)c1cccc(C(=O)c2ccccc2)c1 [Inhibitor 4, (S)-ketoprofen, reference compound] | 40 ± 17 | 400 ± 113 |  |  |  |  |  | 
2 | COc1ccc(-c2nc(OC)nn2-c2ccc(OC)cc2)cc1 [Inhibitor 5] | 4.6 ± 1.3 | > 1000 | 4.9 |  |  |  |  | 
3 | COc1ccc(-c2nc(OCC(F)(F)F)nn2-c2ccc(OC)cc2)cc1 [Inhibitor 20, 1,5-Bis(4-methoxyphenyl)-3-(2,2,2-trifluoroethoxy)-1H-1,2,4-triazole] | 1 ± 0.3 | > 1000 |  | 15 |  |  |  | 
4 | COc1ccc(-n2nc(C(F)(F)F)nc2-c2ccc(F)nc2)cc1 [Inhibitor 24, 2-Fluoro-5-(1-(4-methoxyphenyl)-3-(trifluoromethyl)-1H-1,2,4-triazol-5-yl)pyridine] | 10 ± 3 |  |  |  | 2 ± 0.1 | > 1000 |  | 
5 | COc1ccc(-c2nc(SCF)nn2-c2ccc(OC)cc2)cc1 [Inhibitor 26, 3-(Fluoromethylthio)-1,5-bis(4-methoxyphenyl)-1H-1,2,4-triazole] | 6.4 ± 0.8 |  |  |  | 5 ± 3.9 | > 1000 |  | 
6 | COc1ccc(-c2nc([S+]([O-])CF)nn2-c2ccc(OC)cc2)cc1 (stereo not drawn) [Inhibitor 27, 3-(Fluoromethylsulfinyl)-1,5-bis(4-methoxyphenyl)-1H-1,2,4-triazole] | 5 ± 2 | 545 ± 102 |  |  | 3 ± 1.7 | > 1000 |  | 
7 | COc1ccc(-c2nc(S(=O)(=O)CF)nn2-c2ccc(OC)cc2)cc1 [Inhibitor 28, 3-(Fluoromethylsulfonyl)-1,5-bis(4-methoxyphenyl)-1H-1,2,4-triazole] | 25 ± 3 |  |  |  | 3 ± 1.2 | > 1000 |  | 
8 | COc1ccc(-n2nc(OC)nc2-c2ccccc2)cc1 [Inhibitor 31, 3-Methoxy-1-(4-methoxyphenyl)-5-phenyl-1H-1,2,4-triazole] | 3 ± 2.5 |  |  |  |  |  | 3 ± 0.06 | > 1000
9 | COc1ccc(-n2nc(OCF)nc2-c2ccccc2)cc1 [Inhibitor 32, 3-(Fluoromethoxy)-1-(4-methoxyphenyl)-5-phenyl-1H-1,2,4-triazole] | 100 |  |  |  | 1.7 ± 0.6 | 100 ± 25 |  | 
10 | COc1cc(NCc2cccs2)nc(-c2ccc(S(C)(=O)=O)cc2)n1 [Inhibitor 34, [2-(4-Methanesulfonylphenyl)-6-methoxypyrimidin-4-yl]thiophen-2-ylme-thylamine, reference compound] | > 1000 | 1 ± 0.5 |  |  |  |  | > 1000 | 

Reference: publication PMC6744613 (ACS chemical neuroscience, 2018)
